{
  "source": "patent US9546129B2",
  "about": "“DTPA prodrugs, compositions thereof, and methods of using the same” (priority 2012, dated 2017)",
  "key": {"[1]": {"test_system": "^241Am contaminated rats", "assay": "Once vs twice daily dosing ^241Am decorporation study in rats", "assay_type": "in vivo, Sprague Dawley rat", "settings": "for Total Decorporation: seven days after IM ^241Am", "procedure": "The animal study was conducted according to a protocol approved by The University of North Carolina at Chapel Hill Institutional Animal Care and Use Committee. Sixteen male Sprague Dawley rats were contaminated with ^241Am(NO3)3 (0.25 μCi) by intramuscular injection (0.1 mL, 0.1 M HNO3) into the right hind leg, under isoflurane anesthesia. Immediately after injection, body weights were recorded (Day 0 weight) and animals placed in individual metabolic cages. The 16 rats were assigned to four groups; untreated control, 5 daily oral gavage doses of 600 mg/kg C2E2 once daily, 5 days of oral gavage treatment of 300 mg/kg C2E2 twice daily or 5 daily intravenous doses of Zn-DTPA solution (13.3 mg/kg) via a jugular vein catheter. The C2E2 was from Lot 050 obtained using Method 2. The C2E2 dosing solution utilized was a 10% w/w solution in water. […] Excreted urine and feces were collected at 2, 4, 8, 10, 12, 14, 18, 20 and 24 hours after the first dose and daily for the remainder of the study. The samples were transferred to 20 mL scintillation vials, weighed and placed in a gamma counter (Wizard2 2480, Perkin Elmer) for detection of ^241Am gamma activity. In addition, following necropsy, selected tissues were removed, weighed and placed in a gamma counter (Wizard2 2480, Perkin Elmer) for detection of ^241Am gamma activity. The total amount of ^241Am administered to the animals was determined by quantifying the 59.7 keV photons emitted by ^241Am in duplicate aliquots (100 μL) of the injection solution using a gamma counter (wizard series, Perkin-Elmer). A counting window from 40-80 keV and a 60-second counting time were used for acquisition and each reading was corrected for background at acquisition. All experimental tissues and samples were counted using the same gamma counter and protocol. For all the samples, ^241Am content was expressed as a percentage of the initial dose. The femur from the leg opposite to the injection site was scaled by a factor of 20 to estimate total skeletal ^241Am burden."}, "[2]": {"test_system": "Chinese hamster ovary (CHO) cells", "assay": "In vitro chromosomal aberration assay", "assay_type": "cell-based", "procedure": "The objective of this in vitro assay was to evaluate the ability of C2E2 to induce chromosomal aberrations in cultured Chinese hamster ovary (CHO) cells with and without an exogenous metabolic activation system.\nC2E2 was prepared in cell culture grade water (CCGW) and formed a colorless, transparent, solution. The C2E2 was from Lot 050 obtained using Method 2. Subsequent stocks were prepared by serial dilution in vehicle and all treatments were administered into 10 mL cultures in a volume of 10%. Vehicle control cultures were treated with 100 μL/mL per culture. The treatment periods were for 3 hours with and without metabolic activation or approximately 20 hours without metabolic activation.\nIn an initial chromosomal aberration assay (B1 test), C2E2 concentrations of 6.92, 9.89, 14.1, 20.2, 28.8, 41.2, 58.8, 84.0, 120, 172, 245, 350, and 500 μg/mL were tested in duplicate cultures in the 3- and 20-hour tests without S9 and in the 3-hour test with S9 metabolic activation. All cultures, under all test conditions, were harvested approximately 20 hours from the initiation of treatment. At culture termination, viable cells were counted and population doubling was calculated for measurement of cytotoxicity to support selection of dose levels for aberration analysis. Visual observations of cultures for general cell health and confluence were made prior to termination."}, "[3]": {"test_system": "polychromatic erythrocytes (PCE) in Sprague-Dawley rat bone marrow", "assay": "In vivo micronucleus assay", "procedure": "The objective of this study was to evaluate C2E2 for in vivo clastogenic activity and/or disruption of the mitotic apparatus by detecting micronuclei in polychromatic erythrocytes (PCE) in Sprague-Dawley rat bone marrow.\nC2E2 was formulated in cell culture grade water vehicle and the dose volume for all treatment groups was 20 mL/kg. The C2E2 was from Lot 050 obtained using Method 2.\nMale rats were administered vehicle control, or 500, 1000, or 2000 mg/kg/day of C2E2 once a day for two days separated by approximately 24 hours. The 2000 mg/kg high dose is the limit dose for this assay recommended by ICH S2(R1) guidance. A positive control group of animals received a single 60 mg/kg cyclophosphamide treatment on the second day of dosing. […] Bone marrow was extracted approximately 24 hours after the last treatment in all groups and at least 2000 PCEs per animal were analyzed for the frequency of micronuclei. Cytotoxicity was assessed by scoring the number of PCEs and normochromatic erythrocytes (NCEs) observed while scoring at least 500 erythrocytes per animal."}, "[4]": {"assay": "Single dose toxicology study in rats (UNC-11.240-RMTD)", "assay_type": "in vivo", "settings": "rat"}, "[5]": {"assay": "Stability of C2E2 in plasma (human)", "assay_type": "in vitro ADME", "settings": "37° C.", "procedure": "Prior to the study, 975 μL of plasma (Rat, Beagle and Human) was preheated to 37° C. in Eppendorff tubes and the test compound (C2E2) was prepared in DI water (10 mg/mL). The C2E2 was from Lot 050 obtained using Method 2. To initiate the study, 25 μL of the C2E2 solution was added to the pre-heated plasma and briefly vortexed, to mix. At 0, 15, 30, 60 and 120 minutes a 100 μL sample of plasma was taken, an equal volume of cold acetonitrile was added and mixed to precipitate plasma proteins. Samples were centrifuged at 4° C. and 14,000×g for 10 minutes to remove precipitated proteins, the supernatant was collected and the C2E2 concentration determined by HPLC-CAD. All conditions were repeated in triplicate.\nHPLC Detection Methods: C2E2 analysis was performed on a prominence HPLC (Shimadzu Corporation, Kyoto, Japan) equipped with a Corona Ultra charged […] detector (CAD) (Thermo scientific, Sunnyvale, Calif.). […]\nThe gradient is 0.01-34.99 min: 22% B; 35.00-44.99 min: 33% B; 45.00-60.00 min: 38% B. The flow rate is 1.0 mL/min, a Thermo Hypersil ODS column (150 mm 4.6 mm i.d. with 5.0 μm particles) will be used, injection volume will be 10 μL and column oven temperature maintained at 25° C. […] The limit of quantification is 0.35 μg/mL. […]"}},
  "data": [
    {"compound": "CCOC(=O)CN(CCN(CCN(CC(=O)O)CC(=O)OCC)CC(=O)O)CC(=O)O", "note": "[C2E2, 6,9-bis(carboxymethyl)-3-(2-ethoxy-2-oxoethyl)-11-oxo-12-oxa-3,6,9-triazatetradecan-1-oic acid]", "values": [
      {"measurement": "Effect of dividing the dosage (twice daily vs once daily) on total decorporation", "setting": "[1]; 300 mg/kg BD vs 600 mg/kg OD, male rats", "value": "did not significantly alter total decorporation"},
      {"measurement": "Total Decorporation", "setting": "[1]; C2E2 300 mg/kg oral gavage twice daily for 5 days, male rats", "value": "43.6 ± 1.6 % of injected dose"},
      {"measurement": "Total Decorporation", "setting": "[1]; C2E2 600 mg/kg oral gavage once daily x5, male rats", "value": "39.7 ± 2.6 % of injected dose"},
      {"measurement": "Reduction in the mitotic index compared to vehicle control", "setting": "[2]; 14.1 μg/mL, 20-hour test without S9", "value": 53, "unit": "%"},
      {"measurement": "Cytotoxicity (observation)", "setting": "[2]; 3-hour treatment with and without S9, up to 500 μg/mL", "value": "no relevant cytotoxicity"},
      {"measurement": "Induction of chromosomal aberrations", "setting": "[2]; with and without S9, up to cytotoxicity limiting dose levels and 500 μg/mL", "value": "negative"},
      {"measurement": "Bone marrow cytotoxicity (PCE:NCE ratios)", "setting": "[3]; 500, 1000, 2000 mg/kg/day x2 days, male rats", "value": "absence of treatment-related bone marrow cytotoxicity"},
      {"measurement": "Induction of micronuclei in rat bone marrow", "setting": "[3]; 500, 1000, or 2000 mg/kg/day orally once a day for 2 days, male rats", "value": "negative"},
      {"measurement": "Clinical signs", "setting": "[3]; one 2000 mg/kg/day animal, Day 2", "value": "audible respiration and hypoactive behavior"},
      {"measurement": "Maximum tolerated single dose", "setting": "[4]", "value": 2000, "unit": "mg/kg"},
      {"measurement": "C2E2 remaining", "setting": "[5]; after 2 hours", "value": "approximately 90%"},
      {"measurement": "Metabolism in plasma (observation)", "setting": "[5]; up to two hours", "value": "minimal or not detected"}
    ]}
  ]
}
